Data taken from US6461859B1, “Enzymatic oxidation process for desulfurization of fossil fuels” (Instituto Mexicano del Petroleo, priority 1999, dated 2002).

B1: chloroperoxidase: chloroperoxidase (EC 1.11.1.10) from Caldariomyces fumago, hemoprotein biocatalyst (protein, UniProt P04963 21-319, looked up)
Chloroperoxidase: QEPGSGIGYPYDNNTLPYVAPGPTDSRAPCPALNALANHGYIPHDGRAISRETLQNAFLNHMGIANSVIELALTNAFVVCEYVTGSDCGDSLVNLTLLAEPHAFEHDHSFSRKDYKQGVANSNDFIDNRNFDAETFQTSLDVVAGKTHFDYADMNEIRLQRESLSNELDFPGWFTESKPIQNVESGFIFALVSDFNLPDNDENPLVRIDWWKYWFTNESFPYHLGWHPPSPAREIEFVTSASSAVLAASVTSTPSSLPSGAIGPGAEAVPLSFASTMTPFLLATNAPYYAQDPTLGPND

How the values were obtained:
[1] = target: T1, poly(ethylene)glycol-modified cytochrome c (PEG-Cyt) (Equus caballus, UniProt P00004); experiment: Oxidation of low-sulfur diesel oil enriched with dibenzothiophene (gas chromatogram); format: biochemical; conditions: desulfurized diesel oil enriched with 10 g/l DBT, PEG-Cyt and hydrogen peroxide, GC FID/FPD
T1 construct: made in house
Source text: Desulfurized diesel oil (<0.05% of sulfur) is enriched with 10 g/l of DBT and treat with poly(ethylene)glycol-modified cytochrome c (PEG-Cyt) and hydrogen peroxide. […] DBT sulfoxide is an unstable compound which may be oxidized to form DBT sulfone. Cytochrome c is a biocatalyst able to oxidize thiophenes and organosulfides [Vazquez-Duhalt et al Enzyme Microb. Technol. 15 (1993) 494] and has several advantages when compared with other hemoenzymes. […] Technol. 15 (1993) 494; Vazquez-Duhalt et al Enzyme Microb. Technol. 15 (1993) 936.]. In addition, this biocatalyst can be modified by site-directed mutagenesis [E. Torres et al. Enzyme Microb. Technol. 17 (1995) 1014.] and by chemical modification [Tinoco and Vazquez-Duhalt. Enzyme Microb. Technol. 22 (1998) 8.] to improve both its catalytic activity and range of substrates. PEG-modified enzymes are soluble in organic solvents and their activity in organic solvents is increased because of the reduction of mass transfer limitations in the system [Vazquez-Duhalt et al. Enzyme Microb. Technol. 14 (1992) 837].

[2] = Biocatalytic oxidation of primary diesel fuel followed by distillation; conditions: chloroperoxidase treatment of primary diesel oil followed by distillation
Procedure: After biocatalytic oxidation of the fossil fuel a second process of separation of oxidized organosulfur compounds is envisaged. Because the boiling points of sulfur compounds are incersed after biocatlytic oxidation to sulfoxides, it is possible to remove them by a single distillation. Oxidized sulfur compounds can be removed by decreasing the final distillation point. When primary diesel fuel containing 1.6% sulfur is distilled in order to obtain a 100% distillation at a temperature 50° C. lower than the original fraction, it produces a diesel fuel containing 1.27% of sulfur and 83% of the original hydrocarbons. […] Thus, a biocatalytic treatment of primary diesel oil with chloroperoxidase from Caldariomyces fumago, followed by a distillation is able to reduce the sulfur content by 80%.

T1 sequence (P00004 2-105 limits assumed): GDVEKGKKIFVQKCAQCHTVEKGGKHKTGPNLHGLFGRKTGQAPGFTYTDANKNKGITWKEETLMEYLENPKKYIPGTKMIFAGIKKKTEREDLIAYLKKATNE

Molecule | biocatalytic transformation of DBT [1] | reduction of sulfur content [2]
c1ccc2c(c1)sc1ccccc12 [Dibenzothiophene] | transformed to DBT sulfoxide | 
B1 |  | 80%
